From US10556865B2, “Synergistic herbicidal composition containing certain pyridine or pyrimidine carboxylic acids and certain cereal and rice herbicides” (Dow AgroSciences, LLC, priority 2007, dated 2020)

Experiments:
Assay type in all cases: in vivo
[1] = system: annual ryegrass (Lolium multiflorum L; LOLMG); assay: Postemergence herbicidal activity of mixtures in cereal crops (greenhouse, visual injury); conditions: 125 g/ha, Table 13
Experimental: (§1) Seeds of the desired test plant species were planted in Sun Gro MetroMix® 306 planting mixture, which typically has a pH of 6.0 to 6.8 and an organic matter content of about 30 percent, in plastic pots with a surface area of 103.2 square centimeters (cm^2). […] The plants were grown for 7-36 days in a greenhouse with an approximate 14 hour photoperiod which was maintained at about 18° C. during the day and 17° C. during the night. Nutrients and water were added on a regular basis and supplemental lighting was provided with overhead metal halide 1000-Watt lamps as necessary. The plants were employed for testing when they reached the second or third true leaf stage.
(§2) Treatments consisted of compound (as listed in Tables 1 through 64) and a second cereal herbicide alone and in combination. […] The concentrated stock solutions were diluted to 1.5 mg ai/mL with the addition of 2 volumes of an aqueous mixture containing acetone, water, isopropyl alcohol, DMSO, Agri-dex crop oil concentrate, and Triton® X-77 surfactant in a 64.7:26.0:6.7:2.0:0.7:0.01 v/v ratio. A dilution solution was prepared by mixing 1 volume of 97:3 v/v acetone/DMSO and 2 volumes of an aqueous mixture containing acetone, water, isopropyl alcohol, DMSO, Agri-dex crop oil concentrate, and Triton® X-77 surfactant in a 64.7:26.0:6.7:2.0:0.7:0.01 v/v ratio. Compound requirements are based upon a 12 mL application volume at a rate of 187 liters per hectare (L/ha). […] Formulated compounds were applied to the plant material with an overhead Mandel track sprayer equipped with 8002E nozzles calibrated to deliver 187 L/ha over an application area of 0.503 square meters (m^2) at a spray height of 18 inches […] above average plant canopy. Control plants were sprayed in the same manner with the solvent blank.
(§3) The treated plants and control plants were placed in a greenhouse as described above and watered by sub-irrigation to prevent wash-off of the test compounds. After 20-22 days, the condition of the test plants as compared with that of the control plants was determined visually and scored on a scale of 0 to 100 percent where 0 corresponds to no injury and 100 corresponds to complete kill.
(§4) Colby's equation was used to determine the herbicidal effects expected from the mixtures (Colby, S. R. 1967. Calculation of the synergistic and antagonistic response of herbicide combinations. Weeds 15:20-22.).
(§5) The following equation was used to calculate the expected activity of mixtures containing two active ingredients, A and B: Expected=A+B−(A×B/100)

[2] = system: littleseed Canarygrass (Phalaris minor L; PHAMI); assay: as above; conditions: 125 g/ha, Table 13
Experimental: as §1, §2, §3, §4, §5

[3] = system: Italian ryegrass (Lolium multiflorum L; LOLMU); assay: as above; conditions: for LOLMU Ob: 25 g/ha
Experimental: (§6) Seeds of the desired test plant species were planted in Sun Gro MetroMix® 306 planting mixture, which typically has a pH of 6.0 to 6.8 and an organic matter content of about 30 percent, in plastic pots with a surface area of 103.2 square centimeters (cm^2). When required to ensure good germination and healthy plants, a fungicide treatment and/or other chemical or physical treatment was applied. The plants were grown for 7-36 days in a greenhouse with an approximate 14 hour photoperiod which was maintained at about 18° C. during the day and 17° C. during the night. Nutrients and water were added on a regular basis and supplemental lighting was provided with overhead metal halide 1000-Watt lamps as necessary. The plants were employed for testing when they reached the second or third true leaf stage.
(§7) Treatments consisted of compound (as listed in Tables 1 through 64) and a second cereal herbicide alone and in combination. Weighed amounts of esters (methyl) or salts (TEA [triethylammonium], K [potassium]) of 4-amino-3-chloro -6-(4-chloro-2-fluoro-3-methoxyphenyl)pyridine-2-carboxylic acid (Compound A) or of 6-amino-5-chloro-2-(4-chloro-2-fluoro-3-methoxyphenyl)pyrimidine-4-carboxylic acid (Compound B), were placed in 25 milliliter (mL) glass vials and dissolved in a volume of 97:3 v/v acetone/DMSO to obtain 4.5 milligrams (mg) active ingredient (ai)/mL stock solutions. […] The concentrated stock solutions were diluted to 1.5 mg ai/mL with the addition of 2 volumes of an aqueous mixture containing acetone, water, isopropyl alcohol, DMSO, Agri-dex crop oil concentrate, and Triton® X-77 surfactant in a 64.7:26.0:6.7:2.0:0.7:0.01 v/v ratio. A dilution solution was prepared by mixing 1 volume of 97:3 v/v acetone/DMSO and 2 volumes of an aqueous mixture containing acetone, water, isopropyl alcohol, DMSO, Agri-dex crop oil concentrate, and Triton® X-77 surfactant in a 64.7:26.0:6.7:2.0:0.7:0.01 v/v ratio. Compound requirements are based upon a 12 mL application volume at a rate of 187 liters per hectare (L/ha). Spray solutions of the second cereal herbicide and experimental compound mixtures were prepared by adding the stock solutions to the appropriate amount of dilution solution to form 12 mL spray solution with active ingredients in two- and three-way combinations. Formulated compounds were applied to the plant material with an overhead Mandel track sprayer equipped with 8002E nozzles calibrated to deliver 187 L/ha over an application area of 0.503 square meters (m^2) at a spray height of 18 inches (43 cm) above average plant canopy. Control plants were sprayed in the same manner with the solvent blank.
as §3, §4, §5

[4] = system: chickweed (Stellaria media L; STEME); assay: as above; conditions: for pest or weed control at 140 g/ha: 140 g/ha alone
Experimental: as §6, §7, §3, §4, §5

[5] = system: rigid ryegrass (Lolium rigidum L; LOLRI); assay: as above
Experimental: as §6, §7, §3, §4, §5

[6] = system: scented mayweed (Matricaria chamomila L; MATCH); assay: as above
Experimental: (§8) The plants were grown for 7-36 days in a greenhouse with an approximate 14 hour photoperiod which was maintained at about 18° C. during the day and 17° C. during the night. Nutrients and water were added on a regular basis and supplemental lighting was provided with overhead metal halide 1000-Watt lamps as necessary. The plants were employed for testing when they reached the second or third true leaf stage.
(§9) Treatments consisted of compound (as listed in Tables 1 through 64) and a second cereal herbicide alone and in combination. […] Control plants were sprayed in the same manner with the solvent blank.
as §3, §5

[7] = system: Canada thistle (Cirsium arvense L; CIRAR); assay: as above
Experimental: as §8, §9, §3, §5

[8] = system: bird's-eye speedwell (Veronica persica L; VERPE); assay: as above; conditions: Veronica persica, post-emergence, read-out: VERPE Ob
Experimental: as §8, §9, §3, §5

[9] = system: wild pansy (Viola tricolor L; VIOTR); assay: as above; conditions: Viola tricolor, post-emergence, read-out: VIOTR Ob
Experimental: as §8, §9, §3, §5

[10] = system: black mustard (Brassica nigra L; BRSNI); assay: as above; conditions: Brassica, post-emergence, read-out: BRSNI Ob
Experimental: as §6, §7, §3, §4, §5

[11] = system: wild buckwheat (Polygonum convolvulus L; POLCO); assay: as above
Experimental: as §6, §7, §3, §4, §5

[12] = system: kochia (Kochia scoparia L; KCHSC); assay: as above; conditions: 450 g/ha alone
Experimental: as §6, §7, §3, §4, §5

[13] = system: Leptochloa chinensis (L.) NEES (LEFCH); assay: Postemergence herbicidal mixtures for weed control in direct seeded rice (greenhouse, visual % injury); conditions: for % Injury Ob: LEFCH
Cyperus iria L. (CYPIR) = assay: as above; conditions: CYPIR
[14] = system: Ipomoea hederacea (L.) JACQ. (IPOHE); assay: Postemergence herbicidal mixtures for weed control in direct seeded rice (greenhouse, visual % injury after 3 weeks); conditions: IPOHE
[15] = system: wild oats (Avena fatua L; AVEFA); assay: Postemergence herbicidal activity of mixtures in cereal crops (greenhouse, visual injury); conditions: 25 g/ha, Table 17
Experimental: as §1, §2, §3, §4, §5

[16] = system: windgrass (Apera spica-venti L; APESV); assay: as above; conditions: Apera spica-venti, post-emergence, 25 g/ha, Table 17; read-out: APESV Ob
Experimental: as §1, §2, §3, §4, §5

[17] = system: annual bluegrass (Poa annua L; POAAN); assay: as above; conditions: 25 g/ha
Experimental: as §6, §7, §3, §4, §5

[18] = system: downy brome (Bromus tectorum L; BROTE); assay: as above; conditions: 25 g/ha, Table 10
Experimental: as §6, §7, §3, §4, §5

[19] = Stellaria media, post-emergence, read-out: STEME Ob

2-[4,5-dihydro-4-methyl-4-(1-methylethyl)-5-oxo-1H-imidazol-2-yl]-4(or 5)-methylbenzoic acid [Imazamethabenz, reference compound]
LOLMG Ob [1]: 0% | PHAMI [2]: 0% | LOLMU ([3]; 125 g/ha, Table 13): 0% | STEME Ob ([4]; 125 g/ha): 10% | LOLRI ([5]; 125 g/ha, Table 13): 0% | MATCH Ob ([6]; 125 g/ha): 0%

COc1cc(OC)nc(NC(=O)NS(=O)(=O)N(C)S(C)(=O)=O)n1 [Amidosulfuron]
CIRAR Ob ([7]; 10 g/ha): 20% | pest or weed control at 10 g/ha ([8]; 10 g/ha): 5% | pest or weed control at 10 g/ha ([9]; 10 g/ha): 5%

CC(C)N1C(=O)c2ccccc2NS1(=O)=O [Bentazone]
pest or weed control at 120 g/ha ([10]; 120 g/ha): 50% | POLCO Ob ([11]; 120 g/ha): 0%

N#Cc1cc(Br)c(O)c(Br)c1 [Bromoxynil]
pest or weed control at 70 g/ha ([10]; 70 g/ha): 50% | pest or weed control at 70 g/ha ([4]; Stellaria media, post-emergence, 70 g/ha, read-out: STEME Ob): 0% | pest or weed control at 70 g/ha ([6]; Matricaria, post-emergence, 70 g/ha, read-out: MATCH Ob): 0%

Cc1ccc(NC(=O)N(C)C)cc1Cl [Chlorotoluron]
pest or weed control at 450 g/ha ([10]; 450 g/ha alone): 50% | KCHSC Ob [12]: 50%

CC1(C)CON(Cc2ccccc2Cl)C1=O [Clomazone]
% Injury Ob ([13]; 560 g/ha alone): 40% | % Injury Ob (Cyperus iria L. (CYPIR); 560 g/ha alone): 0% | % Injury Ob (Cyperus iria L. (CYPIR); 1120 g/ha alone): 0%

C/C(=N\NC(=O)Nc1cc(F)cc(F)c1)c1ncccc1C(=O)O [Diflufenzopyr]
% Injury Ob ([14]; 4.38 g/ha alone): 10% | % Injury Ob ([14]; 8.75 g/ha alone): 40% | % Injury Ob ([14]; 17.5 g/ha alone): 60% | % Injury Ob ([14]; 35 g/ha alone): 65% | % Injury Ob ([13]; 8.75 g/ha alone): 0% | % Injury Ob (Cyperus iria L. (CYPIR); 4.38 g/ha alone): 10% | % Injury Ob (Cyperus iria L. (CYPIR); 8.75 g/ha alone): 15% | % Injury Ob (Cyperus iria L. (CYPIR); 17.5 g/ha alone): 20% | % Injury Ob (Cyperus iria L. (CYPIR); 35 g/ha alone): 30%

COC(=O)c1c(Cl)nn(C)c1S(=O)(=O)NC(=O)Nc1nc(OC)cc(OC)n1 [Halosulfuron-methyl]
% Injury LEFCH Ob ([13]; alone 26 g/ha): 0% | % Injury LEFCH Ob ([13]; alone 52 g/ha): 0%

O=C(O)Cc1c[nH]c2ccccc12 [Indol-3-acetic acid]
pest or weed control at 140 g/ha [4, 19]: 0% | POLCO Ob ([11]; 140 g/ha alone): 0% | pest or weed control at 140 g/ha ([6]; Matricaria, post-emergence, 140 g/ha alone, read-out: MATCH Ob): 0%

O=C(O)CCCc1c[nH]c2ccccc12 [Indol-3-butyric acid]
pest or weed control at 140 g/ha ([10]; 140 g/ha alone): 0% | pest or weed control at 140 g/ha [4, 19]: 0%

CSc1nnc(C(C)(C)C)c(=O)n1N [Metribuzin]
pest or weed control at 50 g/ha ([10]; 50 g/ha alone): 50% | pest or weed control at 50 g/ha ([8]; 50 g/ha alone): 10% | pest or weed control at 50 g/ha ([9]; 50 g/ha alone): 20%

COc1nc(C)nc(=NC(=O)NS(=O)(=O)c2ccccc2C(=O)O)[nH]1 [Metsulfuron]
CIRAR Ob ([7]; 3.75 g/ha): 20%

CCCOc1nn(C(=O)NS(=O)(=O)c2ccccc2C(=O)OC)c(=O)n1C [Propoxycarbazone-Na, methyl 2-[[[(4,5-dihydro-4-methyl-5-oxo-3-propoxy-1H-1,2,4-triazol-1-yl)carbonyl]amino]sulfonyl]benzoate, reference compound]
AVEFA Ob [15]: 76% | pest or weed control at 25 g/ha [16]: 90% | LOLMU Ob ([3]; Table 10): 17% | LOLMU Ob ([3]; Table 17): 15% | POAAN Ob ([17]; Table 10): 7% | POAAN Ob ([17]; Table 17): 5% | BROTE Ob [18]: 92% | LOLRI Ob ([5]; 25 g/ha, Table 17): 10% | pest or weed control at 15 g/ha ([8]; 15 g/ha): 5% | pest or weed control at 15 g/ha ([6]; Matricaria, post-emergence, 15 g/ha, read-out: MATCH Ob): 50%

COc1nc(C)nc(NC(=O)NS(=O)(=O)c2ccsc2C(=O)O)n1 [Thifensulfuron]
CIRAR Ob ([7]; 3.75 g/ha): 20%

COc1nc(C)nc(N(C)C(=O)NS(=O)(=O)c2ccccc2C(=O)O)n1 [Tribenuron]
CIRAR Ob ([7]; 3.75 g/ha): 20%
